Experimental data as given in US10278973B2, “Hydroxyl purine compounds and use thereof” (GUANGDONG RAYNOVENT BIOTECH CO., LTD., priority 2015, dated 2019).
Like-named read-outs stand apart in the source and are kept apart here.

Target: T1, Full length human PDE2A protease (Homo sapiens, UniProt O00408)
T1 construct: Full length human PDE2A protease; GST (N); host or cells: insect Sf9 cells (baculovirus)
Test: In vitro evaluation of PDE2 phosphodiesterase inhibitory activity (Transcreener AMP2/GMP2 fluorescence polarization)
Format: biochemical
Experimental: In Vitro Evaluation of PDE2 Phosphodiesterase Inhibitory Activity Experimental objectives: To detect the concentration of AMP/GMP produced in the reaction system by measuring the fluorescence intensity of the fluorescent dye AlexaFluor 633 substituted on AMP/GMP antibody and to calculate the PDE2 phosphodiesterase inhibitory IC50 value of the test compound. Test buffer solution: 10 mM Tris-HCl, pH 7.5, 5 mM MgCl2, 0.01% Brij 35, 1 mM DTT, and 1% DMSO. Enzyme: Full length human PDE2A protease expressed and recombined in insect Sf9 cells with baculovirus using N-terminal GST tag […] Transcreener® AMP^2/GMP^2 antibody, AMP2/GMP2 AlexaFluor 633 fluorescent dye The enzyme solution was prepared with freshly prepared buffer solution and then added to the reaction wells. The DMSO solution of the test compound was added by Echo550 non-contact nanoscale sonicate pipetting system and preincubated for 10 minutes at room temperature. The reaction was initiated by addition of substrate (1 μM cGMP) and allowed to react for one hour at room temperature. The detection system (Transcreener® AMP^2/GMP^2 antibody, AMP2/GMP2 AlexaFluor 633 fluorescent dye) was then added and reacted for 90 minutes at room temperature before fluorescence polarization was detected using Ex/Em 620/688. The intensity of fluorescence polarization was converted to nM concentration by the AMP/GMP standard curve and then relative inhibition of enzyme activity relative to DMSO blank was calculated. IC50 values and curves were calculated using the Prism software package (GraphPad Software, San Diego Calif., USA)

[1] = recombinant full length human PDE2A, substrate 1 μM cGMP, 1 hour at room temperature, read-out: PDE2 phosphodiesterase inhibitory activity

T1 sequence (O00408 whole entry): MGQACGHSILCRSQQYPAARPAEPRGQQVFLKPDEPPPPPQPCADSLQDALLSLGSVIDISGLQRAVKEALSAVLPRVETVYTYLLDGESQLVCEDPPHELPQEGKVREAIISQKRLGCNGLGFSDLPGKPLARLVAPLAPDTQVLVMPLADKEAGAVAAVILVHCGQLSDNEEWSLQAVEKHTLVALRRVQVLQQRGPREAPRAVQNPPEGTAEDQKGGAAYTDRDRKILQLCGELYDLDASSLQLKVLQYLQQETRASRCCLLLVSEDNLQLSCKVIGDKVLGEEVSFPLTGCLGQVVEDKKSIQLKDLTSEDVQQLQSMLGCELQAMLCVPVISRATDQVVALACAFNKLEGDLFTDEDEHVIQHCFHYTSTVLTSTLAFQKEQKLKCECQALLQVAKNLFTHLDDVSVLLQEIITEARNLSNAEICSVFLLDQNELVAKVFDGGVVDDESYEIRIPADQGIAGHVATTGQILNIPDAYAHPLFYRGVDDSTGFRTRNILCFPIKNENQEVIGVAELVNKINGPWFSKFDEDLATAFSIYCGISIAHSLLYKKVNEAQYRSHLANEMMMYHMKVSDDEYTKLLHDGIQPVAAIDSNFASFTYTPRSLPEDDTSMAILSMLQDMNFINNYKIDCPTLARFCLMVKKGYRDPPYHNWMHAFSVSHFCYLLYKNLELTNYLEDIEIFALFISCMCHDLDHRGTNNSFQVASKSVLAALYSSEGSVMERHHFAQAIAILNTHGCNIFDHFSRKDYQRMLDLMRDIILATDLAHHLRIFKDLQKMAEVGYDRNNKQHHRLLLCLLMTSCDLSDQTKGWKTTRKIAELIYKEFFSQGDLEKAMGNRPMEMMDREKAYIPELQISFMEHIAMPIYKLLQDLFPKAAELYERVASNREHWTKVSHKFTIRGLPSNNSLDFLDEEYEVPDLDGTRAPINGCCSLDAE

| IC50 [1] | Structure (SMILES) | IC50 |
| --- | --- | --- |
| 10 to 50 µM | CCc1cc(CCn2c(=O)c3c(ncn3C)n(C)c2=O)nn1C [Example 11 Product 2, 1-(2-(5-Ethyl-1-methyl-1H-pyrazol-3-yl)ethyl)-3,7-dimethyl-1H-purine-2,6(3H,7H)-dione] |  |
| 10 to 50 µM | Cc1cc(CCCCn2c(=O)c3c(ncn3C(F)F)n(C)c2=O)on1 (single isomer, unassigned) [Example 49 Isomer 1, 7-(Difluoromethyl)-3-methyl-1-(4-(3-methylisoxazol-5-yl)butyl)-1H-purine-2,6(3H,7H)-dione] |  |
| 10 to 50 µM | Cc1cc(CCCCn2c(=O)c3c(ncn3CC3(C)COC3)n(C)c2=O)on1 [Example 61, 3-Methyl-1-(4-(3-methylisoxazol-5-yl)butyl)-7-((3-methyloxetan-3-yl)methyl)-1H-purine-2,6(3H,7H)-dione] |  |
| 10 to 50 µM | Cc1cc(CCCCn2c(=O)c3c(cnn3CC3CC3)n(C)c2=O)on1 [Example 81, 1-(Cyclopropylmethyl)-4-methyl-6-(4-(3-methylisoxazol-5-yl)butyl)-pyrazolo[4,3-d]pyrimidin-5,7-dione] |  |
| 10 to 50 µM | Cn1nnc(CCCCCn2c(=O)c3c(ncn3C)n(C)c2=O)n1 (single isomer, unassigned) [Example 40 Isomer 2, 3,7-Dimethyl-1-(5-(1-methyl-2H-tetrazol-5-yl)pentyl)-1H-purine-(3H,7H)-dione] |  |
| 10 to 50 µM | CC(C)c1oncc1Cn1c(=O)c2c(ncn2C)n(C)c1=O [Example 22, 1-((5-Isopropylisoxazol-4-yl)methyl)-3,7-dimethyl-1H-purine-2,6(3H,7H)-dione] |  |
| 10 to 50 µM | Cc1cc(CCCCn2c(=O)c3ccccc3n(C)c2=O)on1 [Example 83, 1-Methyl-3-(4-(3-methylisoxazol-5-yl)butyl)quinazoline-2,4(1H,3H)-dione] |  |
| 1 to 10 µM | Cc1noc(C)c1Cn1c(=O)c2c(ncn2CC2CC2)n(C)c1=O [Example 57, 7-(Cyclopropylmethyl)-1-((3,5-dimethylisoxazol-4-yl)methyl)-3-methyl-1H-purine-2,6-(3H,7H)-dione] |  |
| 10 to 50 µM | Cn1nnnc1CCCCCn1c(=O)c2c(ncn2C)n(C)c1=O (single isomer, unassigned) [Example 40 Isomer 1, 3,7-Dimethyl-1-(5-(1-methyl-1H-tetrazol-5-yl)pentyl)-1H-purine-(3H,7H)-dione] |  |
| 10 to 50 µM | Cc1cc(CCCCn2c(=O)c3c(ncn3C)n(C)c2=O)no1 [Example 20, 3,7-Dimethyl-1-(4-(5-methylisoxazol-3-yl)butyl)-1H-purine-2,6(3H,7H)-dione] |  |
| 10 to 50 µM | Cn1cnc2c1c(=O)n(CCCCc1nn[nH]n1)c(=O)n2C [Example 37, 1-(4-(2H-tetrazol-5-yl)butyl)-3,7-dimethyl-1H-purine-2,6(3H,7H)-dione] |  |
| 10 to 50 µM | Cn1cnc2c1c(=O)n(CCCc1[nH]nc3c1CCCC3)c(=O)n2C [Example 44] |  |
| 1 to 10 µM | CCCCn1cnc2c1c(=O)n(CCCCc1cc(C)no1)c(=O)n2C [Example 55, 7-Butyl-3-methyl-1-(4-(3-methylisoxazol-5-yl)butyl)-1H-purine-2,6(3H,7H)-dione] |  |
| 1 to 10 µM | Cc1cc(-c2ccc(Cn3c(=O)c4c(ncn4C)n(C)c3=O)cc2)on1 [Example 45, 3,7-Dimethyl-1-[4-(3-methylisoxazol-5-yl)-benzyl]-3,7-dihydro-purine-2,6-dione] |  |
| 1 to 10 µM | Cc1cc(CCCCn2c(=O)c3c(ncn3CC3CC3)n(C)c2=O)on1 [Example 56, 7-(Cyclopropylmethyl)-3-methyl-1-(4-(3-methylisoxazol-5-yl)butyl)-1H-purine-2,6(3H,7H)-dione] |  |
|  | COc1ccc(Cn2c(=O)c3c(ncn3C)n(C)c2=O)cn1 [Example 48, 1-((6-Methoxypyridin-3-yl)methyl)-3,7-dimethyl-1H-purine-2,6(3H,7H)-dione] | 10 to 50 µM |

| IC50 [1] | Structure (SMILES) | IC50 |
| --- | --- | --- |
| 10 to 50 µM | Cc1cc(CCCCn2c(=O)c3c(ncn3CC(F)(F)F)n(C)c2=O)on1 [Example 51, 3-Methyl-1-(4-(3-methylisoxazol-5-yl)butyl)-7-(2,2,2-trifluoroethyl)-1H-purine-2,6(3H,7H)-dione] |  |
| 10 to 50 µM | Cc1cc(CCCCn2c(=O)c3c(ncn3C)n(C)c2=O)[nH]n1 [Example 12, 3,7-Dimethyl-1-(4-(3-methyl-1H-pyrazol-5-yl)butyl)-1H-purine-2,6(3H,7H)-dione] |  |
| 1 to 10 µM | CCn1cnc2c1c(=O)n(CCCCc1cc(C)no1)c(=O)n2C [Example 50, 7-Ethyl-3-methyl-1-(4-(3-methylisoxazol-5-yl)butyl)-1H-purine-2,6(3H,7H)-dione] |  |
| 10 to 50 µM | Cc1cc(CCCCn2c(=O)c3c(ncn3C)n(C)c2=O)n(C)n1 (single isomer, unassigned) [Example 14 Isomer 1, 1-(4-(1,3-dimethyl-1H-pyrazol-5-yl)butyl)-3,7-dimethyl-1H-purine-2,6(3H,7H)-dione] |  |
| 10 to 50 µM | Cn1cnc2c1c(=O)n(CCCCCc1nn[nH]n1)c(=O)n2C [Example 39, 1-(5-(2H-tetrazol-5-yl)pentyl)-3,7-dimethyl-1H-purine-2,6(3H,7H)-dione] |  |
| 1 to 10 µM | CC(C)c1oncc1Cn1c(=O)c2c(ncn2CC2CC2)n(C)c1=O [Example 58] |  |
| 10 to 50 µM | Cn1nnc(CCCCn2c(=O)c3c(ncn3C)n(C)c2=O)n1 [Example 38 Isomer 1, 3,7-Dimethyl-1-(4-(2-methyl-2H-tetrazol-5-yl)butyl)-1H-purine-(3H,7H)-dione] |  |
| 1 to 10 µM | CCCn1cnc2c1c(=O)n(CCCCc1cc(C)no1)c(=O)n2C [Example 52, 3-Methyl-1-(4-(3-methylisoxazol-5-yl)butyl)-7-propyl-1H-purine-2,6(3H,7H)-dione] |  |
| 10 to 50 µM | Cc1cc(CCCCn2c(=O)c3cc[nH]c3n(C)c2=O)on1 [Example 66, 1-Methyl-3-(4-(3-methylisoxazol-5-yl)butyl)-1H-pyrrolo[2,3-d]pyrimidine-2,4(3H,7H)-dione] |  |
| 10 to 50 µM | Cn1cnc2c1c(=O)n(CCCc1nc3ccccc3s1)c(=O)n2C [Example 43, 1-(3-(Benzo[d]thiazol-2-yl)propyl)-3,7-dimethyl-1H-purine 2,6(3H,7H)-dione] |  |
| 10 to 50 µM | Cc1cc(CCCCn2c(=O)c3c(ncn3C(C)C)n(C)c2=O)on1 [Example 54, 7-Isopropyl-3-methyl-1-(4-(3-methylisoxazol-5-yl)butyl)-1H-purine-2,6(3H,7H)-dione] |  |
| 10 to 50 µM | Cc1nc(C)c(Cn2c(=O)c3c(ncn3C)n(C)c2=O)s1 [Example 29, 1-((2,4-Dimethylthiazol-5-yl)methyl)-3,7-dimethyl-1H-purine-2,6(3H,7H)-dione] |  |
| 10 to 50 µM | Cn1cnc2c1c(=O)n(CCCCc1cn[nH]n1)c(=O)n2C [Example 34, 1-(4-(2H-1,2,3-triazol-4-yl)butyl)-3,7-dimethyl-1H-purine-2,6(3H,7H)-dione] |  |
| 1 to 10 µM | Cc1cc(CC2CCCC(n3c(=O)c4c(ncn4C)n(C)c3=O)C2)on1 (centres unmarked) [Example 28] |  |
| 10 to 50 µM | Cc1cc(CCCCn2c(=O)c3nn(C)cc3n(C)c2=O)on1 [Example 69, 2,4-Dimethyl-6-[4-(3-methylisoxazol-5-yl)-butyl]-2,4-dihydro-pyrazolo[4,3-d]pyrimidine-5,7-dione] |  |
| 10 to 50 µM | Cc1cc(CCCCn2c(=O)c3c(cnn3CC(F)(F)F)n(C)c2=O)on1 [Example 75, 4-Methyl-6-(4-(3-methylisoxazol-5-yl)butyl)-1-(2,2,2-trifluoroethyl)-pyrazolo[4,3-d]pyrimidine-5,7-dione] |  |
